Experiment [1] has as its system WI38. Description: Conversion of fibroblast cell line to neural cell / iOPC in neural induction medium. The class given is cell-based, human. The following applies: for conversion into neural cell: 10 μM in neural induction medium, WI38. Here is the method:
(§1) Using the same method with EXAMPLE 1, cultured fiber cell line IMR90 and WI38 with neural induction medium including 10 μM Y27632, Palomid 529, LY294002, PF562271 or rapamycin.
(§2) In contrast, after 4 weeks in the same induction medium without ROCK inhibitor, cells kept fibroblast morphology with negative staining of O4, A2B5, and S100β (data not shown). […] To confirm conversion of fibroblasts to iOPCs by ROCK inhibitor, additional two human primary fibroblast cell lines, IMR90 and WI38, were tested using the same fibroblast—OPC conversion conditions. Consistent with the results from adult dermal cells, inventors observed 60-80% of fibroblast—OPC conversion in these two cell lines (data not shown). Next, inventors assessed whether the iOPCs could differentiate into mature oligodendrocytes. After removing growth factors and addition of thyroid hormone (a known inducer of oligodendrocyte differentiation) in cell culture medium, about 70% of the iOPCs differentiated into cells with a multiprocessed morphology typical of oligodendrocytes within 3-7 days (FIG. 2b). The oligodendrocytes expressed myelin basic protein (MBP), an integral protein component of the myelin sheath, and other defining markers of mature oligodendrocytes, including myelin-associated glycoprotein and myelin oligodendrocyte glycoprotein (FIG. 2b). Thus, inventors concluded that ROCK inhibitor-induced iOPCs can be further differentiated into mature functional oligodendrocytes.

Experiment [2] relates to IMR90. Described as above. In kind it is cell-based, human. The following applies: for conversion into neural cell: 10 μM in neural induction medium, IMR90. As to the method: as §1, §2
In experiment [3] the test system is human adult dermal fibroblasts. Description: Screening of protein kinase inhibitor library for fibroblast-OPC conversion. In kind it is cell-based. The following applies: with retinoic acid (RA), neural induction medium, quantified on day 7. As to the method:
1. Coated cell culture 24-well plate with 0.1 mg/ml Poly-L-ornithine solution (sigma, P4957) for at least 3 hours. Then washed wells 3 times with autoclaved MilliQ water, 5 mins per time.
2. Added 500 ul/well of […] Fibronectin (sigma, F0556) and […] Laminin (ROCHE, 11243217001) solution in 1×PBS and placed in incubator overnight to coat.
3. Aspirated the Fibronectin/Laminin solution from the wells, washed with culture medium.
4. Plated fibroblast cells with Basic Medium at 2×10^4 cells (human adult dermal fibroblasts, ATCC, PCS-201-012) per well, cultured overnight. The Basic Medium comprises: DMEM high glucose (HyClone, SH30022), 10% FBS (Fisher Scientific, SH3007003), 10 mM HEPES (CORNING 25060-CL), 1×MEM NEAA (100×) (GIBCO, 11140) (MEM Non-Essential Amino Acids Solution), 1 mM Na Pyruvate (GIBCO, 25000), 1×2-Mercaptoethanol (1000×) (GIBCO, 21985), 1× Glutamax (100×) (GIBCO, 35050), penicillin/streptomycin.
5. Aspirated Basic Medium from the wells.
7. Fed wells with Induction Medium. Changed medium every two days. […]

Experiment [4] deals with IMR90 fibroblasts. Description: Direct conversion of fibroblasts to neurons and astrocytes. The class given is cell-based, human. As to the method: To assess the general application of ROCK inhibitor for direct conversion of different neural cells, inventors tweaked the protocol for induction of iOPCs and successfully converted fibroblasts to typical neurons and astrocytes. using the following procedure:
at Day 1, coat tissue culture 24-well plate with 0.1 mg/ml Poly-L-ornithine solution (sigma, P4957) for at least 3 hours; wash wells 3 times with autoclaved MilliQ water, 5 mins each; add 500 ul/well of 2 μg/ml Fibronectin (sigma, F0556) and 10 μg/ml Laminin (ROCHE, 11243217001) solution in 1×PBS and place in incubator overnight to coat. At Day 2, aspirate the F/L solution from the well, wash with basic medium and plate fibroblast cells with basic medium at 2×10^4 cells per well. At Day 3, aspirate basic medium from the well, wash with PBS once, and feed cells with induction medium. From Day 6-10, when cells change their morphology into neural-like cells, culture cells with mature medium or OPC medium.

Experiment [5] concerns dermal fibroblasts. Description: Immunostaining of OPC-specific biomarkers after 7-day induction. In kind it is cell-based, human. Here is the method: After 7-day induction with ROCK inhibitor treatment, cells were fixed and analyzed by immunostaining of the OPC-specific biomarker, O4. Immunofluorescence staining was performed as following steps:
Briefly, 5×10^4 modified human fibroblasts were planted on coated glass coverslips the day before induction. After induction, cells were fixed for 20 min at room temperature in 4% paraformaldehyde in PBS, permeabilized for 30 min in PBS containing 0.2% Triton X-100 and 10% normal goat serum (NGS), and incubated overnight at 4° C. in PBS containing 10% NGS and primary antibodies. Then cells were washed three times with PBS and incubated for 2 h at room temperature with anti-rabbit or anti-mouse secondary antibodies Alexa Fluor-488 or Alexa Fluor-594 (1:500, Invitrogen). The images were acquired by immunofluorescence microscope or Zeiss LSM 510 META confocal microscope with 40×, 1.3 numerical aperture oil-immersion objective.
The following antibodies were used for the immunofluorescence studies: mouse anti-04 (Millipore, 1:50), rabbit anti-NF (Sigma-Aldrich, 1:1000), mouse anti-A2B5 (Millipore, 1:50), MBP (1:100, Covance; 1:100, Abcam), MAG (Millipore, 1:50), MOG (Millipore, 1:50).

Results on three molecules are retold here after patent publication US10053666B2, “Medium for preparing a neural cell and usage thereof” (SHENZHEN CELL INSPIRE BIOTECHNOLOGY CO., LTD., priority 2014, dated 2018).

Regarding `CN(c1ncccc1CNc1nc(Nc2ccc3c(c2)CC(=O)N3)ncc1C(F)(F)F)S(C)(=O)=O` [PF562271], the “conversion into neural cell” value in experiment [1] and in experiment [2] was “converted into neural cell” throughout.
Consider `C[C@@H](N)[C@H]1CC[C@H](C(=O)Nc2ccncc2)CC1` [Y27632], for which the “efficiency of conversion of human fibroblasts into iOPCs (OPC positive cells counted by morphology)” value in experiment [3] is about 80%. Further, the “staining of astrocyte-specific biomarker GFAP in induced astrocytes” value in experiment [4] (induced astrocytes) is reported as “positive staining”. Also, in experiment [4] (induced neuronal cells (iNCs)), the “staining of neuronal biomarkers Tuj and MAP2 in induced neuronal cells” value is given as “positive staining”. Moreover, the “dermal fibroblasts converted to O4-positive cells with OPC morphology” value in experiment [5] (7-day induction) is “about 80%”. In addition, the “staining with additional OPC markers A2B5 and S100β” value in experiment [5] (O4 positive cells after 7-day induction) was “positive staining”. The “conversion into neural cell” value in experiment [1] and in experiment [2] was “converted into neural cell” each time. For the same molecule, the fibroblast-OPC conversion was 60-80% in experiment [1] (WI38, same conversion conditions (data not shown)) and 60-80% in experiment [2] (IMR90, same conversion conditions (data not shown)).
With `COc1ccc(COc2cc3oc(=O)c4cc(C(C)O)ccc4c3cc2OC)cc1` (stereo not shown) [Palomid 529], the “conversion into neural cell” value in experiment [1] and in experiment [2] was “converted into neural cell” each time.
